This note sets out measurements from patent US20230052517A1, “ELECTROCHEMICAL SENSING METHODS AND APPARATUS FOR DETERMINING DRUG UPTAKE AND RETENTION IN CELLS” (priority 2020, published 2023).

Where two headings read alike, the source gives them in different places.

For series [1], the system named is Pseudomonas aeruginosa PAO1 (wild type strain, containing efflux pumps). Kind of series: Tobramycin uptake by DPV of the supernatant, PAO1 strain. The format is cell-based. As to conditions: for Percentage of Tobramycin in Supernatant, PAO1: 2 mM Tobramycin, 1X PBS, 0.4% glucose, 37° C., DPV on GCE at pH 3. As to the method: (§1) (i.e. 15 minutes; 30 minutes and 60 minutes). […] Integration underneath the curves provides the charge.
(§2) The uptake of another antibiotic, Tobramycin (2 mM) was analyzed in Pseudomonas aeruginosa using DPV. […] As summarized in TABLE 3, the concentration of the control remains stable over different times of incubation at 37° C. […] At 15 min, the hyper-susceptible PAO750 removes about 26% of Tobramycin, which is slightly more than the wild type. […] A concentration of 2 mM Tobramycin appears to have been too high for the cells to withstand. […] As both of these strains are not resistant to Tobramycin, cell lysis at prolonged incubation times was expected.

Series [2] relates to Pseudomonas aeruginosa PAO750 (hyper-susceptible strain, efflux pumps deleted). The format is cell-based. As to conditions: for Percentage of Tobramycin in Supernatant, PAO750: 2 mM Tobramycin, 1X PBS, 0.4% glucose, 37° C., DPV on GCE at pH 3. As to the method: as §1, §2
Series [3] is described as follows: Control drug solution without bacterial cells incubated at 37° C., DPV. Particulars: for Percentage of Tobramycin in Supernatant, Control: 2 mM Tobramycin in 1X PBS, 0.4% glucose without bacterial cells. As to the method:
DPV measurements of 1 mM Cip were taken and after incubation, centrifugation was performed at 4000 rpm for 10 min and the supernatant was collected.
Similarly uptake of Tobramycin (2 mM), was analyzed in Pseudomonas aeruginosa also using DPV. The control solutions were tested before and after incubation at 37° C. and with different incubation times at 37° C. (i.e. 15 minutes; 30 minutes and 60 minutes). […] Integration underneath the curves provides the charge. This charge is proportional to the number of molecules transferred during DPV recordings (see FIGS. 11-14).

Series [4] has as its system carboplatin-susceptible and carboplatin-resistant ovarian cancer cell line. Briefly: Voltammetric carboplatin uptake study in ovarian cancer cells. Particulars: one carboplatin-susceptible and one carboplatin-resistant cell line. Type of series: cell-based. As to the method: Further work was done by the inventors^45 to evaluate the electrochemical detection of chemotherapeutic uptake by ovarian cancer cells, whereby an electrochemical characterization of carboplatin was evaluated for detection limits and pH dependence. Furthermore, bioelectrochemical studies quantified carboplatin uptake by ovarian cancer cells.

Series [5] relates to A2780-s and A2780-cp ovarian cancer cells. Kind of series: SECM electrochemical response of ovarian cancer cells to carboplatin (FcCH2OH regeneration). Type of series: cell-based. As to the method: Carboplatin-susceptible (A2780-s) and carboplatin-resistant (A2780-cp) ovarian cancer cells were grown in petri dishes at 37° C. until a confluence of approximately 60 to 70% was reached. Cells were exposed to a PBS solution containing 1 mM ferrocenemethanol (FcCH2OH) at 37° C. for 45 minutes. Following this incubation, the petri dish was inserted into a scanning electrochemical microscope (SECM), equipped with a camera, fluorescence unit and a heating stage. Target cells were identified using an approach curve and a horizontal line scan was carried out across the cells every 5 to 10 minutes. The solution in the petri dish was exchanged for a PBS solution containing 2 mM carboplatin and 1 mM ferrocenemethanol (FcCH2OH). Horizontal line scans were carried out every 5 to 10 minutes to record the electrochemical response by the cells.

Series [6] concerns Pseudomonas bacteria (PAO1 and PA262). Particulars: not told. As to the method:
After 25 min of incubation, the bacteria suspension is centrifuged, cells are resuspended in PBS and drop-casted onto a 3-mm glassy carbon macroelectrode (see FIG. 1D). Other macroelectrode materials, such as gold, platinum, etc. could be employed in the same way. The electrode is then placed in a KCl solution and DPV is performed at a potential rage of zero to 1.0V. This potential range would be adjusted depending on the drug of interest.
When the electrode is placed in the KCl solution, various time intervals were applied before driving the oxidation reaction at the electrode.

Regarding `NC[C@H]1O[C@H](O[C@H]2[C@H](O)[C@@H](O[C@H]3O[C@H](CO)[C@@H](O)[C@H](N)[C@H]3O)[C@H](N)C[C@@H]2N)[C@H](N)C[C@@H]1O` [Tobramycin], the “Percentage of Tobramycin in Supernatant, PAO1” value stood at 80% in series [1] (15 minutes), 81% in series [1] (30 minutes) and 99% in series [1] (60 minutes). In series [1] (2 mM, 60 min), the “uptake observation at prolonged incubation, PAO1” value is recorded as “A similar effect is seen in PAO1”. The “Tobramycin taken up from the solution by PAO1” value in series [1] (2 mM, incubation times of 15 and 30 min) is “approximately 20%”. Further, the “time to establishment of equilibrium of intracellular and extracellular Tobramycin” value in series [1] (PAO1, 2 mM) was below 15 min. Also, the “Percentage of Tobramycin in Supernatant, PAO750” value in series [2] (15 minutes) worked out at 74%; in series [2] (30 minutes), 95%; in series [2] (60 minutes) it was 99%. Further, the “Tobramycin removed by PAO750” value in series [2] (2 mM, 15 min) is on record as “about 26%”. The “uptake observation at prolonged incubation, PAO750” value in series [2] (2 mM, 30 min) is reported as “the uptake is failing, probably due to cell lysis of PAO750”. For the same compound, the “stability of Tobramycin control solution (DPV currents before and after incubation)” value in series [3] (2 mM) was “do not vary, indicating stable 2 mM Tobramycin concentrations”. The “Percentage of Tobramycin in Supernatant, Control” value is listed as 99% in series [3] (15 minutes), 99% in series [3] (30 minutes) and 95% in series [3] (60 minutes).

Turning to `N.N.O=C([O-])C1(C(=O)[O-])CCC1.[Pt+2]` [carboplatin], the “drug uptake detected by voltammetry” value in series [4] is “demonstrated the detection of carboplatin uptake”. In addition, the “time for slope increase to relax back to its initial value” in series [5] (A2780-cp cells) lay in the range of 5 to 10 min. Moreover, the “change of slope (peak current vs scan velocity) after drug exposure” value in series [5] (A2780-cp cells, 2 mM carboplatin, 1 mM FcCH2OH) is “an increase in slope right after carboplatin exposure was observed”. Moreover, the “difference in SECM response between susceptible and resistant cells” value in series [5] (A2780-s vs A2780-cp) was “A clear difference between carboplatin-susceptible and carboplatin-resistant cells”.

On to `O=C(O)c1cn(C2CC2)c2cc(N3CCNCC3)c(F)cc2c1=O` [ciprofloxacin], for which, in series [6], the “DPV current of drop-casted bacteria after incubation with drug (export from the bacteria)” value was “significant increase in current” and the “dependence of export current peak on wait time” value was “a longer wait time results in a higher current peak”.
